Like-named read-outs stand apart in the source and are kept apart here.

This note sets out measurements from article PMC7614683, “A small molecule PI3Kα activator for cardioprotection and neuroregeneration” (Nature, 2023).

Experiment in all cases: SelectScreen Z-LYTE kinase activity assay (SI Table 6)
What all share (assay type): biochemical

Experiment [1] has as its target T1, protein kinases of the Z-LYTE panel (Homo sapiens, UniProt Q8IW41).
T1 sequence (Q8IW41 1-473): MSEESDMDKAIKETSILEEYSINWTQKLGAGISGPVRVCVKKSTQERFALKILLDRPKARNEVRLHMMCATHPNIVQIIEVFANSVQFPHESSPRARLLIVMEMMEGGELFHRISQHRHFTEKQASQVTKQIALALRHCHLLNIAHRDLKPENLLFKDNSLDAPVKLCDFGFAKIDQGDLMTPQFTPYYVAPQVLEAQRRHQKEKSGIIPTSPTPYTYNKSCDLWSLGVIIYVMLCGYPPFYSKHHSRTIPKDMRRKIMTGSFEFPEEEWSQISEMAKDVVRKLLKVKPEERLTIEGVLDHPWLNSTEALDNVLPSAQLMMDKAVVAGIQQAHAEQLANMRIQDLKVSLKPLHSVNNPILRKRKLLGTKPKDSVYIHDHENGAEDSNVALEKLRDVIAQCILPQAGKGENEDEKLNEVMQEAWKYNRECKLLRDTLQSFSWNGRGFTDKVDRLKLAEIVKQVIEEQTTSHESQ
The essentials: (§1)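 Kinases in the SelectScreen panel (Adapta, LanthaScreen binding, Z-LYTE formats) were tested against compound at 1 μM. Separately, ATM (100 nM, 5 μM GST-p53, 1 mM ATP, 30 min, 30°C) and mTORC1 (50 nM, 15 μM 4E-BP1, 250 μM ATP, 3 h) were run with 200 μM compound. Those products were read on Phos-tag gels.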

Experiment [2] has as its target protein kinases of the Z-LYTE panel (Homo sapiens, UniProt P00519). The essentials: as §1
For experiment [3], the target named is protein kinases of the Z-LYTE panel (Homo sapiens, UniProt P43405). The essentials:
as §1

For experiment [4], the target named is protein kinases of the Z-LYTE panel (Homo sapiens, UniProt P11362). The essentials: as §1
Experiment [5] concerns the target protein kinases of the Z-LYTE panel (Homo sapiens, UniProt P14616). The essentials:
as §1

For experiment [6], the target named is protein kinases of the Z-LYTE panel (Homo sapiens, UniProt Q7KZI7). The essentials:
as §1

Experiment [7] addresses T2, protein kinases of the Z-LYTE panel (Homo sapiens, UniProt Q9UQB9).
T2 sequence (Q9UQB9 1-309): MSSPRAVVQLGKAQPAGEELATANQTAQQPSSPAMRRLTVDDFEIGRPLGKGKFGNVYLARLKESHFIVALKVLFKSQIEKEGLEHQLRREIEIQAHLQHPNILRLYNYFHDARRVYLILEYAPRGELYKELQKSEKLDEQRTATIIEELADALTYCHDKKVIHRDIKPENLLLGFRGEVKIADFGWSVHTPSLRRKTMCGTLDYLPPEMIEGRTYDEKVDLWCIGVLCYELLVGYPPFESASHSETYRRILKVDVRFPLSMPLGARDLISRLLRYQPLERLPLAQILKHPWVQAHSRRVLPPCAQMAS
The essentials:
as §1

Sequence of protein kinases of the Z-LYTE panel (Homo sapiens, UniProt P00519) (P00519 whole entry): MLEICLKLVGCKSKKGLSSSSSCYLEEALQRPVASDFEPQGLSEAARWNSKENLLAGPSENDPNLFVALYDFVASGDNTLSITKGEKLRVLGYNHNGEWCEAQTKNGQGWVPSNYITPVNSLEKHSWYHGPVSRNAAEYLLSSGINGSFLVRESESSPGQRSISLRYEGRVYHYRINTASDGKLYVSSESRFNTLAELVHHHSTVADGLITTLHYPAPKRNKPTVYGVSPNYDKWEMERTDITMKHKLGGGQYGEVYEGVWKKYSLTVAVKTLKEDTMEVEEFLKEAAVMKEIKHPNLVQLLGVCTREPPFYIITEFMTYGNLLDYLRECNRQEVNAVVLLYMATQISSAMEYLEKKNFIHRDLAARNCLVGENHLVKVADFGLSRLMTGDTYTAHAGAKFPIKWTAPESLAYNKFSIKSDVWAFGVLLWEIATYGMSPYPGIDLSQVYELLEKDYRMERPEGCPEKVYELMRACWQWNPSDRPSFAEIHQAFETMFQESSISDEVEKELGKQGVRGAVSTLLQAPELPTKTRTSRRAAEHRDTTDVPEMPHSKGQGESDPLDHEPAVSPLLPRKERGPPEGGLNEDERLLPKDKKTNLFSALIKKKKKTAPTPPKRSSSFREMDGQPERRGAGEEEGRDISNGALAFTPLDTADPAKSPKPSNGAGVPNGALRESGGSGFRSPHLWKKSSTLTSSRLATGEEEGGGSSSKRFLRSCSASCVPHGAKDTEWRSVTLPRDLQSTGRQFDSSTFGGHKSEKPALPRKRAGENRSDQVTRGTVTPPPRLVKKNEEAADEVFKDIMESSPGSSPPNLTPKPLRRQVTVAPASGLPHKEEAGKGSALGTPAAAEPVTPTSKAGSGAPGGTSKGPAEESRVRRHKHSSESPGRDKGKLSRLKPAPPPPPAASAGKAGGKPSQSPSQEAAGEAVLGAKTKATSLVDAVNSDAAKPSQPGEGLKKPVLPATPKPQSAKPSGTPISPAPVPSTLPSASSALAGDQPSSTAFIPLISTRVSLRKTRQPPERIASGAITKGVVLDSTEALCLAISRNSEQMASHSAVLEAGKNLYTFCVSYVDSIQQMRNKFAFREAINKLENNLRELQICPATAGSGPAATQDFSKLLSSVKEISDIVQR
Sequence of protein kinases of the Z-LYTE panel (Homo sapiens, UniProt Q7KZI7) (Q7KZI7 whole entry): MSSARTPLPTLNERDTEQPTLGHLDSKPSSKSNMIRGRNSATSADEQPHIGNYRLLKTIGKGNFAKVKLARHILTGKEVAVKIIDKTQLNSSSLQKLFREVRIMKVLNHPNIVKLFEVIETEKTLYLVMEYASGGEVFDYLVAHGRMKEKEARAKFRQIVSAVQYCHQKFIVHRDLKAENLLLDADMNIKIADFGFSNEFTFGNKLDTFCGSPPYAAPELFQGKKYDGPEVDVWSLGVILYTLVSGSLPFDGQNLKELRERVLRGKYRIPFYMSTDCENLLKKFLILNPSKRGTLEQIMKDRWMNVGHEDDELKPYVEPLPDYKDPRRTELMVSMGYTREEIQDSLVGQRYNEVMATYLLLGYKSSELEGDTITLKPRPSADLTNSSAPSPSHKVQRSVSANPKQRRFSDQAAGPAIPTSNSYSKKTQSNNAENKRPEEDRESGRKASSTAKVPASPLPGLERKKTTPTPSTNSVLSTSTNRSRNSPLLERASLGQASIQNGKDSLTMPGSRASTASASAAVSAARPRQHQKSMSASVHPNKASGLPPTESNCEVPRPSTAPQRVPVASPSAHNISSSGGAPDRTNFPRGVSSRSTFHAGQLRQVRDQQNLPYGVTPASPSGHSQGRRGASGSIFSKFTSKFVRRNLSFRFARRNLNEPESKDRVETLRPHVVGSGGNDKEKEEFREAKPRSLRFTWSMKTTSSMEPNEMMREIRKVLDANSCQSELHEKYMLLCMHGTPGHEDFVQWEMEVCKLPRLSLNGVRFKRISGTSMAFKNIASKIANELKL
Sequence of protein kinases of the Z-LYTE panel (Homo sapiens, UniProt P11362) (P11362 22-822): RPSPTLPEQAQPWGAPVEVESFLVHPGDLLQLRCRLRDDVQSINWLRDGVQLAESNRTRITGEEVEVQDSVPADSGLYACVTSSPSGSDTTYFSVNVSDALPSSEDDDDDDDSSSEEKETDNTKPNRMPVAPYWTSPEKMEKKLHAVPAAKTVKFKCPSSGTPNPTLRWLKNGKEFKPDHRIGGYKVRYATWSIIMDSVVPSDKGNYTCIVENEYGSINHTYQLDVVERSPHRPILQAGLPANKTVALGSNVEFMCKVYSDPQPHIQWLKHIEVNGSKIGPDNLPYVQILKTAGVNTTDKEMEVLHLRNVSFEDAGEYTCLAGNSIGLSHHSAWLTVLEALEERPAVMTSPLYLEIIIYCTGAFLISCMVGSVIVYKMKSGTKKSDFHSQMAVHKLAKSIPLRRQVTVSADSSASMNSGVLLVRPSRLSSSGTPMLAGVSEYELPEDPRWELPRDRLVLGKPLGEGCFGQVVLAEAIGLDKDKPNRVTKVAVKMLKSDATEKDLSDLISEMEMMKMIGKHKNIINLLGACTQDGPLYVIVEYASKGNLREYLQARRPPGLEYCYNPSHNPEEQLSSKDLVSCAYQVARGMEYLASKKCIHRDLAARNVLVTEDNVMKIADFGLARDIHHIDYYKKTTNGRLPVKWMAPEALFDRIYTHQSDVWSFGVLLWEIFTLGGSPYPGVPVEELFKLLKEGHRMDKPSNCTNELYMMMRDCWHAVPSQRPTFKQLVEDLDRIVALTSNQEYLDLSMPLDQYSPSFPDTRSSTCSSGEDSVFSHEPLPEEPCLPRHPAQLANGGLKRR
Sequence of protein kinases of the Z-LYTE panel (Homo sapiens, UniProt P14616) (P14616 27-1297): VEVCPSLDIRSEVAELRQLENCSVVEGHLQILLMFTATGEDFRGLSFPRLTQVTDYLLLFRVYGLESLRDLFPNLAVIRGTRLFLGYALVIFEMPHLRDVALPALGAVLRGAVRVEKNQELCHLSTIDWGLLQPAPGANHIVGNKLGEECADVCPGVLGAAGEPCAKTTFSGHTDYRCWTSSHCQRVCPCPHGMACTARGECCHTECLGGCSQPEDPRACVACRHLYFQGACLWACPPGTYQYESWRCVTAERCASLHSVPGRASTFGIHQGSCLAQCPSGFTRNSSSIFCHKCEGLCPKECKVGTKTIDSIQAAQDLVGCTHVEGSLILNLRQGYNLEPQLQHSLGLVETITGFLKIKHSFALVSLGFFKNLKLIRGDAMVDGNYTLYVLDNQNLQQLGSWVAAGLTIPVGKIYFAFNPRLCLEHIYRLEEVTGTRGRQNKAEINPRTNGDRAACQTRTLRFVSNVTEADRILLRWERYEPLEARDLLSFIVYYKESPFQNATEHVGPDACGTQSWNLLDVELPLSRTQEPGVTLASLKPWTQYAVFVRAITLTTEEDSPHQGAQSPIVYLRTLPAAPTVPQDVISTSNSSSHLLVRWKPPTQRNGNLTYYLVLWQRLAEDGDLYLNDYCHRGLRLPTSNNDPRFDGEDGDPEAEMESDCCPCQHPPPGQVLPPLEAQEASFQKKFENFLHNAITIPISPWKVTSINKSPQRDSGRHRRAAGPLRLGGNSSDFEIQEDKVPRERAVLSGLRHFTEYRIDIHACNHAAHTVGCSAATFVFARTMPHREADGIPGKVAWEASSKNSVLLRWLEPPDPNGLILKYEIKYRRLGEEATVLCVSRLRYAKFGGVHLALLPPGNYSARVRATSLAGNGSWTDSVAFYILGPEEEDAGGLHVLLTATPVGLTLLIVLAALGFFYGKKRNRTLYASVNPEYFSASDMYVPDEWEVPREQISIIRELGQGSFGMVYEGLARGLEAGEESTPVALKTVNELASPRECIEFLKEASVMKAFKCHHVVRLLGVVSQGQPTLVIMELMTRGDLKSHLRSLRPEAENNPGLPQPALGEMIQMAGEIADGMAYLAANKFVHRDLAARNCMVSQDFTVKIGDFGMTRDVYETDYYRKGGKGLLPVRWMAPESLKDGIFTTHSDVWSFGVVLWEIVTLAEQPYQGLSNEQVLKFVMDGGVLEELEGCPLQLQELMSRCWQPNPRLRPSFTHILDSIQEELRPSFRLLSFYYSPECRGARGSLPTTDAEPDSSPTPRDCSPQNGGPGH

Take `CCN1CCN(c2ccc(Nc3cc(Nc4cccc5c4N(C(C)=O)CC5)ccn3)cc2)CC1` [Compound 1938]: the inhibition – broadly, the relative decrease from the control value, in per cent – at 1 µM came to 2.18% in experiment [1] (read-out: % Inhibition Point 1); 2.77% in experiment [1] (read-out: % Inhibition Point 2); 2.48% in experiment [1] (read-out: % Inhibition mean); 16% in experiment [2] (read-out: % Inhibition Point 1); 17% in experiment [2] (read-out: % Inhibition Point 2); 16% in experiment [2] (read-out: % Inhibition mean). Further, the inhibition at 1 µM in experiment [3] (read-out: % Inhibition Point 1) was 3%; in experiment [3] (read-out: % Inhibition Point 2) it was 3.66%; in experiment [3] (read-out: % Inhibition mean), 3.32%; in experiment [4] (read-out: % Inhibition Point 1), 25%; in experiment [4] (read-out: % Inhibition Point 2), 23%; in experiment [4] (read-out: % Inhibition mean) it was 24%. The inhibition at 1 µM in experiment [5] (read-out: % Inhibition Point 1) worked out at 9%; in experiment [5] (read-out: % Inhibition Point 2) it was 8%; in experiment [5] (read-out: % Inhibition mean), 8%; in experiment [6] (read-out: % Inhibition Point 1) it was 6.48%; in experiment [6] (read-out: % Inhibition Point 2) it was 4%; in experiment [6] (read-out: % Inhibition mean), 5.34%. The inhibition at 1 µM in experiment [7] (read-out: % Inhibition Point 1) came out at 39%; in experiment [7] (read-out: % Inhibition Point 2), 35%; in experiment [7] (read-out: % Inhibition mean) it was 37%.
